Test results taken from PubChem BioAssay AID1259407 (Chemical Carcinogenesis Research Information System (CCRIS), 2018).
Calls of active or inactive are those of the source. No rule for the calls is given here.

Test system: CCRIS mutagenicity, Ames/micronucleus/aberration tests
Experiment: CCRIS mutagenicity studies
[1] = Test System: AMES SALMONELLA TYPHIMURIUM, Strain/Indicator: TA98, Metabolic Activation: RAT, LIVER, S-9, AROCLOR 1254, Method: STANDARD PLATE
[2] = Test System: AMES SALMONELLA TYPHIMURIUM, Strain/Indicator: TA100, Metabolic Activation: NONE, Method: STANDARD PLATE
[3] = Test System: AMES SALMONELLA TYPHIMURIUM, Strain/Indicator: TA100, Metabolic Activation: RAT, LIVER, S-9, AROCLOR 1254, Method: STANDARD PLATE
[4] = Test System: AMES SALMONELLA TYPHIMURIUM, Strain/Indicator: TA102, Metabolic Activation: NONE, Method: STANDARD PLATE
[5] = Test System: AMES SALMONELLA TYPHIMURIUM, Strain/Indicator: TA98, Metabolic Activation: NONE, Method: PREINCUBATION
[6] = Test System: AMES SALMONELLA TYPHIMURIUM, Strain/Indicator: TA100, Metabolic Activation: NONE, Method: PREINCUBATION

Nc1ccc(/C=C/c2ccccc2)cc1
mutagenic call (Test System: AMES SALMONELLA TYPHIMURIUM, Strain/Indicator: TA98(1,8-DNP6), Metabolic Activation: NONE, Method: STANDARD PLATE): inactive; negative | mutagenic call (Test System: AMES SALMONELLA TYPHIMURIUM, Strain/Indicator: TA98(1,8-DNP6), Metabolic Activation: S-9, Method: STANDARD PLATE): active; positive | mutagenic call (Test System: AMES SALMONELLA TYPHIMURIUM, Strain/Indicator: TA98, Metabolic Activation: RAT LIVER S9, AROCLOR, Method: STANDARD PLATE): active; positive | mutagenic call [1]: active; positive | mutagenic call (Test System: AMES SALMONELLA TYPHIMURIUM, Strain/Indicator: TA98, Metabolic Activation: S-9, Method: STANDARD PLATE): active; positive | mutagenic call [2]: inactive; negative | mutagenic call (Test System: AMES SALMONELLA TYPHIMURIUM, Strain/Indicator: TA100, Metabolic Activation: RAT, LIVER, S9, AROCLOR, Method: STANDARD PLATE): active; positive | mutagenic call [3]: active; positive | mutagenic call (Test System: AMES SALMONELLA TYPHIMURIUM, Strain/Indicator: TA100, Metabolic Activation: RAT, LIVER, S-9, PHENOBARBITAL, Method: STANDARD PLATE): active; positive | mutagenic call (Test System: AMES SALMONELLA TYPHIMURIUM, Strain/Indicator: TA100, Metabolic Activation: S-9, Method: STANDARD PLATE): active; positive | mutagenic call (Test System: AMES SALMONELLA TYPHIMURIUM, Strain/Indicator: TA1538, Metabolic Activation: RAT, LIVER, S-9, PHENOBARBITAL, Method: STANDARD PLATE): active; positive

OC1c2ccc3cccnc3c2C2OC2C1O (stereo not given)
mutagenic call [2]: active; positive

CC[C@@]1(O)C[C@H](O[C@H]2C[C@H](N(C)C)[C@H](O)[C@H](C)O2)c2c(cc3c(c2O)C(=O)c2c(O)cccc2C3=O)[C@H]1C(=O)OC
mutagenic call [4]: active; positive | mutagenic call (Test System: AMES SALMONELLA TYPHIMURIUM, Strain/Indicator: TA104, Metabolic Activation: NONE, Method: STANDARD PLATE): active; positive

CCCC[N+](=O)[O-]
mutagenic call [5]: inactive; negative | mutagenic call (Test System: AMES SALMONELLA TYPHIMURIUM, Strain/Indicator: TA98, Metabolic Activation: RAT, LIVER, S-9, AROCLOR, Method: PREINCUBATION): inactive; negative | mutagenic call (Test System: AMES SALMONELLA TYPHIMURIUM, Strain/Indicator: TA98, Metabolic Activation: RAT, LIVER, S-9, KANECHLOR 500, Method: PREINCUBATION): inactive; negative | mutagenic call [6]: inactive; negative | mutagenic call (Test System: AMES SALMONELLA TYPHIMURIUM, Strain/Indicator: TA100, Metabolic Activation: RAT, LIVER, S-9, AROCLOR, Method: PREINCUBATION): inactive; negative | mutagenic call (Test System: AMES SALMONELLA TYPHIMURIUM, Strain/Indicator: TA100, Metabolic Activation: RAT, LIVER, S-9, KANECHLOR 500, Method: PREINCUBATION): inactive; negative | mutagenic call (Test System: AMES SALMONELLA TYPHIMURIUM, Strain/Indicator: TA102, Metabolic Activation: NONE, Method: PREINCUBATION): inactive; negative | mutagenic call (Test System: AMES SALMONELLA TYPHIMURIUM, Strain/Indicator: TA102, Metabolic Activation: RAT, LIVER, S-9, AROCLOR, Method: PREINCUBATION): inactive; negative | mutagenic call (Test System: E. COLI, Strain/Indicator: WP2 UVRA (PKM101), Metabolic Activation: NONE, Method: PREINCUBATION): inactive; negative | mutagenic call (Test System: E. COLI, Strain/Indicator: WP2 UVRA (PKM101), Metabolic Activation: RAT, LIVER, S-9, KANECHLOR 500, Method: PREINCUBATION): inactive; negative | mutagenic call (Test System: UDS RAT HEPATOCYTES, Strain/Indicator: THY INCORP, Metabolic Activation: NONE): inactive; negative

COc1c(Cl)ccc(Cl)c1C(=O)O
mutagenic call (Test System: AMES SALMONELLA TYPHIMURIUM, Strain/Indicator: TA97, Metabolic Activation: NONE, Method: STANDARD PLATE): inactive; negative | mutagenic call (Test System: AMES SALMONELLA TYPHIMURIUM, Strain/Indicator: TA97, Metabolic Activation: RAT, LIVER, S-9, AROCLOR 1254, Method: STANDARD PLATE): inactive; negative | mutagenic call (Test System: AMES SALMONELLA TYPHIMURIUM, Strain/Indicator: TA98, Metabolic Activation: NONE, Method: STANDARD PLATE): inactive; negative | mutagenic call [1]: inactive; negative | mutagenic call [2]: inactive; negative | mutagenic call [3]: inactive; negative | mutagenic call [4]: inactive; negative | mutagenic call (Test System: AMES SALMONELLA TYPHIMURIUM, Strain/Indicator: TA102, Metabolic Activation: RAT, LIVER, S-9, AROCLOR 1254, Method: STANDARD PLATE): inactive; negative | mutagenic call (Test System: UDS HUMAN LYMPHOCYTES, Strain/Indicator: THY INCORP (NON-S-PHASE), Metabolic Activation: NONE, Method: LIQUID SCINTILLATION COUNTING): inactive; negative | mutagenic call (Test System: UDS HUMAN LYMPHOCYTES, Strain/Indicator: THY INCORP (NON-S-PHASE), Metabolic Activation: RAT, LIVER, S-9, Method: LIQUID SCINTILLATION COUNTING): active; positive

COC(=O)/C(C#N)=C/c1ccccc1Br
mutagenic call (Test System: AMES SALMONELLA TYPHIMURIUM, Strain/Indicator: TA1535, Metabolic Activation: NONE, Method: STANDARD PLATE): inactive; negative | mutagenic call (Test System: AMES SALMONELLA TYPHIMURIUM, Strain/Indicator: TA1535, Metabolic Activation: RAT, LIVER, S-9, AROCLOR 1254, Method: STANDARD PLATE): inactive; negative

Fc1cc2cccnc2c2ncccc12
mutagenic call (Test System: AMES SALMONELLA TYPHIMURIUM, Strain/Indicator: TA100, Metabolic Activation: RAT, LIVER, S-9, PHENOBARBITAL AND 5,6-BENZOFLAVONE, Method: PREINCUBATION): active; positive

C=CC(=O)OCCBr
mutagenic call (Test System: AMES SALMONELLA TYPHIMURIUM, Strain/Indicator: TA97, Metabolic Activation: HAMSTER, LIVER, S-9, AROCLOR 1254 (10%), Method: PREINCUBATION): inactive; negative | mutagenic call (Test System: AMES SALMONELLA TYPHIMURIUM, Strain/Indicator: TA97, Metabolic Activation: NONE, Method: PREINCUBATION): inactive; negative | mutagenic call (Test System: AMES SALMONELLA TYPHIMURIUM, Strain/Indicator: TA97, Metabolic Activation: RAT, LIVER, S-9, AROCLOR 1254 (10%), Method: PREINCUBATION): inactive; negative | mutagenic call (Test System: AMES SALMONELLA TYPHIMURIUM, Strain/Indicator: TA98, Metabolic Activation: HAMSTER, LIVER, S-9, AROCLOR 1254 (10%), Method: PREINCUBATION): inactive; negative | mutagenic call [5]: inactive; negative | mutagenic call (Test System: AMES SALMONELLA TYPHIMURIUM, Strain/Indicator: TA98, Metabolic Activation: RAT, LIVER, S-9, AROCLOR 1254 (10%), Method: PREINCUBATION): inactive; negative | mutagenic call (Test System: AMES SALMONELLA TYPHIMURIUM, Strain/Indicator: TA100, Metabolic Activation: HAMSTER, LIVER, S-9, AROCLOR 1254 (10%), Method: PREINCUBATION): active; positive | mutagenic call [6]: inactive; negative | mutagenic call (Test System: AMES SALMONELLA TYPHIMURIUM, Strain/Indicator: TA100, Metabolic Activation: RAT, LIVER, S-9, AROCLOR 1254 (10%), Method: PREINCUBATION): active; positive | mutagenic call (Test System: AMES SALMONELLA TYPHIMURIUM, Strain/Indicator: TA1535, Metabolic Activation: HAMSTER, LIVER, S-9, AROCLOR 1254 (10%), Method: PREINCUBATION): active; positive | mutagenic call (Test System: AMES SALMONELLA TYPHIMURIUM, Strain/Indicator: TA1535, Metabolic Activation: NONE, Method: PREINCUBATION): active; positive | mutagenic call (Test System: AMES SALMONELLA TYPHIMURIUM, Strain/Indicator: TA1535, Metabolic Activation: RAT, LIVER, S-9, AROCLOR 1254 (10%), Method: PREINCUBATION): active; positive
